Consider 5 substances from patent publication US11274125B2, “Amyloid-beta-binding peptides and the use thereof for the treatment and diagnosis of Alzheimer's disease” (FORSCHUNGSZENTRUM JUELICH GMBH, priority 2013, dated 2022).

The test system of assay [1] is TgSwDI mouse model. The assay is described as follows: Object recognition test (ORT). In kind it is in vivo. The settings on record: TgSwDI mice. Here is the method: FIG. 1: Here, the result of the so-called “object recognition test” (ORT) is shown. Animals treated with D3D3 (amidated) (details in Table 2) and animals treated with placebo were placed individually and separately from each other in a box in which two objects were located. After the animals had time to explore both objects, the animals were removed from the box again and not placed back in there until 24 hours later. Before that, however, one object was replaced with a new object different therefrom. Animals having memory now preferably explore the new object. Animals having no memory of having stayed in the box 24 hours earlier spend the same amount of time exploring the old object and the new object. The time that the animal spends with the old object (white bars) and the new object (black bars) is measured in seconds. It is clearly apparent that the animals treated with the placebo spend the same amount of time with the new and the old objects. […] Thus, only the animals treated with D3D3 show a functioning memory in the test.
FIG. 5: Here, the result of the so-called “object recognition test” (ORT) is shown. Animals treated with RD2D3 (amidated) (details in Table 2) and animals treated with placebo were placed individually and separately from each other in a box in which two objects were located. After the animals had time to explore both objects, the animals were removed from the box again and not placed back in there until 24 hours later. Before that, however, one object was replaced with a new object different therefrom. Animals having memory now preferably explore the new object. Animals having no memory of having stayed in the box 24 hours earlier spend the same amount of time exploring the old object and the new object. The time that the animal spends with the old object (black bars) and the new object (white bars) is measured in seconds. It is clearly apparent that the animals treated with the placebo spent the same amount of time with the new and the old objects.

Assay [2] deals with TBA 2.1 mice. The assay can be described thus: SHIRPA test. In kind it is in vivo, mouse. The note with it: 0.1 mg/day i.p. for 4 weeks (micropump), before vs after treatment, FIG. 3, listed as D3D3 (amidated). The protocol: FIG. 3: The SHIRPA test is a test where a number of characteristics, including reflexes, are tested. Each characteristic is assessed separately from the others, and points are awarded in each case. The higher the number of points, the more progressed the phenotype, which is to say the neurological damage, is. The SHIRPA test was measured prior to (black bars) and after (white bards) the treatment (treatment details are provided in Table 2). […] D3D3 thus acts more efficiently than D3.

Assay [3] has as its system TBA 2.1 mice. The assay can be described thus: Rotarod test. The note with it: 0.1 mg/day i.p. for 4 weeks (micropump), before vs after treatment. In kind it is in vivo, mouse. The text has this: FIG. 2: The so-called “rotarod” test is used to measure how long an animal is able to balance on a rotating rod before falling off. This allows the animal's neuromotor performance to be measured. The longer the animal is able to balance, the less strongly the motor neurons are affected by the phenotype of neurodegeneration. The difference between before and after treatment is plotted in seconds. […] As expected, the degeneration has thus progressed. […] Thus, the treatment slowed, or even stopped, the neurodegeneration in both instances.
On the technique in general: The rotarod test checks motor coordination on a turning rod.

The subject of assay [4] is TgSwDI mouse model. The assay can be described thus: Morris water maze. In kind it is in vivo. The settings on record: TgSwDI mice, 7 mg/4 weeks i.p. (micropump), day 5, FIG. 4; listed as RD2D3 (amidated). Here is the method:
FIG. 4: The so-called “Morris water maze” is used to measure the spatial memory of animals. The time is measured in seconds that the animal requires to locate a platform hidden closely beneath the water surface in a water tank. This is measured in several experiments per day on several consecutive days. […] The search time is plotted in seconds on five consecutive days. The learning of animals treated with RD2D3 (amidated) was significant.

The target of assay [5] is T1, amyloid beta fibrils (Aß1-42) (Homo sapiens, UniProt P05067).
T1 construct: 1 mg lyophilized Aß1-42 and N-terminal biotinylated Aß1-42; biotin (only on part of the peptide molecules)
The assay is described as follows: SPR binding kinetics, amyloid beta fibrils. The note with it: heterogeneous binding model, FIG. 8. The protocol: (§1) 1 mg lyophilized Aß1-42 and N-terminal biotinylated Aß1-42 were each dissolved in 1 ml 100% hexafluoroisopropanol (HFIP) and dissolved overnight at room temperature. For the oligomer and fibril preparation, non-biotinylated Aß was used with N-terminal biotinylated Aß at a ratio of 1:10 and the HFIP was evaporated (Concentrator 5301 from Eppendorf). The resultant Aß film, at a final concentration of 80 μM, was placed in sodium phosphate buffer (10 mM, pH 7.4) and incubated (RT, 600 rpm). The incubation time was 3 h for the oligomer preparation, and 24 h for the fibril preparation. 100% N-terminal biotinylated Aß1-42 without incubation was used for the preparation of monomers.
The density gradient centrifugation was carried out subsequent to the Aß preparation to purify the respective Aß species according to the size of the same. An iodixanol gradient in 10 mM sodium phosphate buffer, pH 7.4 with rising concentrations from 50% to 5% v/v iodixanol was used for this purpose. 100 μl of the Aß sample was applied and separated by way of ultracentrifugation (3 h, 4° C., 259000 g). […]
(§2) Binding kinetics were likewise measured by way of SPR spectroscopy using a T200 device from Biacore (GE Healthcare). […] The binding curves were evaluated by way of kinetic fit models (heterogeneous binding model) using the Biacore T200 evaluation software (version 2.0). […]
For orientation: SPR reads the build-up and loss of mass on a sensor chip optically.

Assay [6] concerns the target T2, amyloid beta oligomers (Aß1-42) (Homo sapiens, UniProt P05067).
T2 construct: 1 mg lyophilized Aß1-42 and N-terminal biotinylated Aß1-42; biotin (only on part of the peptide molecules)
The assay can be described thus: SPR binding kinetics, amyloid beta oligomer. The protocol: as §1
The density gradient centrifugation was carried out subsequent to the Aß preparation to purify the respective Aß species according to the size of the same. An iodixanol gradient in 10 mM sodium phosphate buffer, pH 7.4 with rising concentrations from 50% to 5% v/v iodixanol was used for this purpose. 100 μl of the Aß sample was applied and separated by way of ultracentrifugation (3 h, 4° C., 259000 g). Subsequently, the gradient was fractionated into 14 fractions, 140 μl each. Monomeric Aß are present in the first two top fractions, Aß oligomers in fractions 4 to 6, and Aß fibrils in fractions […].
Immobilization for Surface Plasmon Resonance (SPR) Spectroscopy A T200 from Biacore (GE Healthcare) was used for SPR spectroscopy. The Aß species purified by way of density gradient centrifugation were directly immobilized on a sensor chip (Series S Sensor Chips SA) according to the manufacturer's instructions by way of biotin-streptavidin coupling. 1×PBS was used as the running buffer. Loading took place at 25° C. and a flow rate of 5 μl/min. […]
as §2

Entries after “also recorded” stand apart in the source; their conditions may differ. Where no end group is shown, it is not given here. [ ]: non-standard residue; d: D form.

T2 sequence (P05067 672-713): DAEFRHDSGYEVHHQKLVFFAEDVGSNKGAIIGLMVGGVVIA
T1 sequence (P05067 672-713): as above

On to “D3D3 amidated: dimer D3D3 (SEQ ID NO: 6), amidated at position 24 at the free C-terminus ([dR][dP][dR][dT][dR][dL][dH][dT][dH][dR][dN][dR][dR][dP][dR][dT][dR][dL][dH][dT][dH][dR][dN][dR]-NH2; N-terminus assumed; SMILES CC(C)C[C@@H](NC(=O)[C@@H](CCCNC(=N)N)NC(=O)[C@H](NC(=O)[C@@H](CCCNC(=N)N)NC(=O)[C@H]1CCCN1C(=O)[C@H](N)CCCNC(=N)N)[C@H](C)O)C(=O)N[C@H](Cc1c[nH]cn1)C(=O)N[C@@H](C(=O)N[C@H](Cc1c[nH]cn1)C(=O)N[C@H](CCCNC(=N)N)C(=O)N[C@H](CC(N)=O)C(=O)N[C@H](CCCNC(=N)N)C(=O)N[C@H](CCCNC(=N)N)C(=O)N1CCC[C@@H]1C(=O)N[C@H](CCCNC(=N)N)C(=O)N[C@@H](C(=O)N[C@H](CCCNC(=N)N)C(=O)N[C@H](CC(C)C)C(=O)N[C@H](Cc1c[nH]cn1)C(=O)N[C@@H](C(=O)N[C@H](Cc1c[nH]cn1)C(=O)N[C@H](CCCNC(=N)N)C(=O)N[C@H](CC(N)=O)C(=O)N[C@H](CCCNC(=N)N)C(N)=O)[C@H](C)O)[C@H](C)O)[C@H](C)O)”, for which the Object recognition entry with TgSwDI mouse model [1] (1 mg/4 weeks i.p. (micropump), FIG. 1) was “significant”; in the assay on TgSwDI mouse model [1] (1 mg/4 weeks i.p. (micropump), FIG. 1, listed as D3D3) it was “considerably improves cognition”; in the assay with TgSwDI mouse model [1] (1 mg/4 weeks i.p. (micropump), FIG. 1, listed as D3D3 (amidated)) it was “spend much more time with the new object”. Also, the SHIRPA entry in the assay with TBA 2.1 mice [2] is reported as “showed no significant worsening of the SHIRPA value; also recorded: acts more efficiently than the simple peptide D3 (amidated)”. The Rotarod entry is “able to stop the progression of the phenotype” in the assay with TBA 2.1 mice [3] (FIG. 2, listed as D3D3) and “exhibited no worsening of the neuromotor symptoms” in the assay on TBA 2.1 mice [3] (FIG. 2, listed as D3D3 (amidated)).
For “RD2D3 amidated: dimer RD2D3 (SEQ ID NO: 4), amidated at position 24 at the free C-terminus ([dP][dT][dL][dH][dT][dH][dN][dR][dR][dR][dR][dR][dR][dP][dR][dT][dR][dL][dH][dT][dH][dR][dN][dR]-NH2; N-terminus assumed; SMILES CC(C)C[C@@H](NC(=O)[C@@H](CCCNC(=N)N)NC(=O)[C@H](NC(=O)[C@@H](CCCNC(=N)N)NC(=O)[C@H]1CCCN1C(=O)[C@@H](CCCNC(=N)N)NC(=O)[C@@H](CCCNC(=N)N)NC(=O)[C@@H](CCCNC(=N)N)NC(=O)[C@@H](CCCNC(=N)N)NC(=O)[C@@H](CCCNC(=N)N)NC(=O)[C@@H](CCCNC(=N)N)NC(=O)[C@@H](CC(N)=O)NC(=O)[C@@H](Cc1c[nH]cn1)NC(=O)[C@H](NC(=O)[C@@H](Cc1c[nH]cn1)NC(=O)[C@@H](CC(C)C)NC(=O)[C@H](NC(=O)[C@H]1CCCN1)[C@H](C)O)[C@H](C)O)[C@H](C)O)C(=O)N[C@H](Cc1c[nH]cn1)C(=O)N[C@@H](C(=O)N[C@H](Cc1c[nH]cn1)C(=O)N[C@H](CCCNC(=N)N)C(=O)N[C@H](CC(N)=O)C(=O)N[C@H](CCCNC(=N)N)C(N)=O)[C@H](C)O)”, the Water maze result in the assay on TgSwDI mouse model [4] is recorded as “able to improve the cognition of SweDI mice”. Moreover, the Object recognition entry is “significant” with TgSwDI mouse model [1] (7 mg/4 weeks i.p. (micropump), FIG. 5) and “spend much more time with the new object; also recorded: able to improve the cognition of SweDI mice” in the assay with TgSwDI mouse model [1] (7 mg/4 weeks i.p. (micropump), FIG. 5, listed as RD2D3 (amidated)).
For the substance RKRTRLHTHRNR [cD3(P2K)], in assay [5], the “Binding strength (KD, kinetics) to amyloid beta fibrils” value is “sub-pM binding range”.
For “cD3z: cD3 zero, cyclized D3 without any further amino acid attachments (cyclo([dR][dP][dR][dT][dR][dL][dH][dT][dH][dR][dN][dR]); SMILES CC(C)C[C@H]1NC(=O)[C@@H](CCCNC(=N)N)NC(=O)[C@@H]([C@H](C)O)NC(=O)[C@@H](CCCNC(=N)N)NC(=O)[C@H]2CCCN2C(=O)[C@@H](CCCNC(=N)N)NC(=O)[C@@H](CCCNC(=N)N)NC(=O)[C@@H](CC(N)=O)NC(=O)[C@@H](CCCNC(=N)N)NC(=O)[C@@H](Cc2c[nH]cn2)NC(=O)[C@@H]([C@H](C)O)NC(=O)[C@@H](Cc2c[nH]cn2)NC1=O)”, the “Rmax, contribution of KD2 (high-affinity site) to RU total loading” value in assay [6] (oligomers, FIG. 7, high-affinity site) is on record as 21%. The “Rmax, contribution of the low-affinity site to RU total loading” value in assay [6] (oligomers, FIG. 7, low-affinity site (white bar)) came out at 79%.
For “rprtrlhthrnr ([dR][dP][dR][dT][dR][dL][dH][dT][dH][dR][dN][dR]) [linear D3, known D-enantiomeric peptide D3, linear, unmodified C-terminal carboxyl group, reference compound]”, the “Binding strength (KD, kinetics) to amyloid beta oligomer” value in assay [6] (heterogeneous binding model, FIG. 7) is reported as “binds only a low-affinity site, but not a high-affinity site”.
